In EP2687213B1, “Solid forms comprising (+)-2-[1-(3-ethoxy-4-methoxyphenyl)-2-methylsulfonylethyl]-4-acetylaminoisoindoline-1,3-dione, compositions thereof, and uses thereof” (CELGENE CORPORATION, priority 2008, dated 2009):

Biological target: T1, PDE6 from bovine retinal rod outer segments (Bos taurus, UniProt P11541+P23439)
T1 construct: PDE6 from bovine retinal rod outer segments; from tissue; host or cells: bovine retinal rod outer segments
T1 sequence (P11541 2-856 limits assumed): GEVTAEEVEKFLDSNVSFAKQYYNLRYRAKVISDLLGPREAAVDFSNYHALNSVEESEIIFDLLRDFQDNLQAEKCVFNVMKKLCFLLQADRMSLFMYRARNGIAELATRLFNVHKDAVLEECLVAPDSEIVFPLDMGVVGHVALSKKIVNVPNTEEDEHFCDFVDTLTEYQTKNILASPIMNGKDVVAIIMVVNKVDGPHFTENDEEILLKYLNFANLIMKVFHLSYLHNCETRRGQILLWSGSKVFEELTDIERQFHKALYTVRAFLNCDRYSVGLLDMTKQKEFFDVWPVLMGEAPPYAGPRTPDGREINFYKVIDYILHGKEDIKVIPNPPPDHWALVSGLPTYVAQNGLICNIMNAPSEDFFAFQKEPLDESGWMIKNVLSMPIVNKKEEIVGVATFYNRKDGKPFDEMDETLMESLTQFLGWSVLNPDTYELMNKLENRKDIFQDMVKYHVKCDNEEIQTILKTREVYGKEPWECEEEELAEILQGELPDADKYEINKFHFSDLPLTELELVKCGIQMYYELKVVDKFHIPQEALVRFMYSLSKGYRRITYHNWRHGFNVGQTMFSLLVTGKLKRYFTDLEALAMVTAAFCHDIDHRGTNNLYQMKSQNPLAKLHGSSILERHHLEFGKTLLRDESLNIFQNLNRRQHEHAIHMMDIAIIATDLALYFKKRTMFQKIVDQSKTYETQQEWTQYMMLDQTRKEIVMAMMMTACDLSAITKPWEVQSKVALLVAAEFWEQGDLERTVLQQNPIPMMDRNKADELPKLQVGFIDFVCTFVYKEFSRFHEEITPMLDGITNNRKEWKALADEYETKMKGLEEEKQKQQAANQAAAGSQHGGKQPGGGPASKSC
T1 sequence (P23439 2-850 limits assumed): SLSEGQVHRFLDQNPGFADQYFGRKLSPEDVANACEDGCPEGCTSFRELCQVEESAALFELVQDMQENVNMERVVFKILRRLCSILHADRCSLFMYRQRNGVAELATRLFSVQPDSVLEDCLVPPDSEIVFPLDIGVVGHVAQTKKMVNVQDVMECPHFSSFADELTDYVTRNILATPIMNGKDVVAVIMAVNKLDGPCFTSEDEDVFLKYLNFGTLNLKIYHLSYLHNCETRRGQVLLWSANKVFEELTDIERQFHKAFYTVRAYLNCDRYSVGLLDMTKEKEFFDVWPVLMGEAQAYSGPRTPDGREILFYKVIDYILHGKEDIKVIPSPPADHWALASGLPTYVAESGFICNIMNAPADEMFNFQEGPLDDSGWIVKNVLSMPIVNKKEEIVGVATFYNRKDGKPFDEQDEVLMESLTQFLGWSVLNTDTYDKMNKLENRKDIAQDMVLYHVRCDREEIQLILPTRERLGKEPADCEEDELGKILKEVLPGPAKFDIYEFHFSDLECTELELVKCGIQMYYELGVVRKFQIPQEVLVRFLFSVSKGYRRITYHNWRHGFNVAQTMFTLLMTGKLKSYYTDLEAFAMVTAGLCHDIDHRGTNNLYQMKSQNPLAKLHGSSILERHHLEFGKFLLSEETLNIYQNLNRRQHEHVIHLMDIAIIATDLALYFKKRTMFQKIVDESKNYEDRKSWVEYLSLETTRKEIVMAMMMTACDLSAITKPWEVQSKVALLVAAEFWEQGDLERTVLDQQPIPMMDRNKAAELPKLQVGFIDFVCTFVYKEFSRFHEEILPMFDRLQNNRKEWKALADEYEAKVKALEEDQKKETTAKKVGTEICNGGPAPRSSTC
Test: PDE6 enzyme assay
Format: biochemical
Details: from PDE inhibition data of Table 1

CCOc1cc(C(CS(C)(=O)=O)N2C(=O)c3cccc(NC(C)=O)c3C2=O)ccc1OC (single isomer, unassigned; (+)) [Compound A, (+)-2-[1-(3-ethoxy-4-methoxyphenyl)-2-methylsulfonylethyl]-4-acetylaminoisoindoline-1,3-dione]
PDE Specificity Ratio PDE4/PDE6: >40000 fold
